# Earlier results as cited in patent US7273620B1, “Triggered release of liposomal drugs following mixing of cationic and anionic liposomes” (University of British Columbia, priority 2002, dated 2007).
# Details: from LUV; depends on acyl chain length of ceramide anchor
substance,measurement,value
1-O-(2′-(ω-methoxypolyethylene-glycol)succinoyl)-2-N-myristoylsphyngosine [PEG-CerC14],dissociation rate of PEG-Ceramide,1.2 h
